From patent publication US20010034322A1, “Taxol-like protein (TALP) and process for preparing the same” (priority 1996, published 2001)

Tests used:
Type in all cases: biochemical
[1] = system: tubulin isolated from bovine brain; test: coprecipitation of tubulin and TALP (centrifugation, SDS-PAGE of supernatants and pellets); conditions: tubulin 0.4 mg/ml, 37° C., 30 minutes
Protocol: To investigate whether TALP promotes microtubule assembly in the same manner as taxol, tubulin isolated from bovine brain was added to 0.1M MES buffer(pH 6.8) to a concentration of 0.4 mg/ml. Then, 2 mM GTP, 10 μM taxol or 4 μM TALP was added to the reaction mixture, and polymerization of microtubules were carried out at 37° C. for 30 minutes. The reaction mixtures were centrifuged for 20 minutes, and the supernatants and the pellets thus obtained were analyzed by 12% SDS-PAGE(see: FIG. 7(A)).
Also, tubulin polymerization was investigated with the variation of TALP concentration. […] In FIGS. 7(A) and 7(B), S and P designate supernatant and pellet, respectively.

tubulin [2] = test: electron microscopic analysis of microtubules; conditions: tubulin 1 mg/ml, 37° C., 30 minutes
Protocol: When tubulin polymerization was monitored by measuring the absorbance as in Example 1, increase in the absorbance may occur not only by microtubule assembly but also by the aggregation of tubulins. Thus, in order to confirm that the turbidity change is caused by microtubule assembly, the morphology of the polymers was examined with electron microscopy. Tubulin was added to 0.1M MES buffer to a concentration of 1 mg/ml, and GTP, taxol or TALP was added to a final reaction volume of 250 μl. The reaction mixture was incubated at 37° C. for 30 minutes, and the absorbance change at 350 nm was monitored. At this time, the reaction solutions showing increase in the absorbance were fixed and applied to a carbon-coated grids, and dried. Grids were then stained with 1% uranyl acetate for 5 minutes, washed with distilled water, and dried. And then, they were examined with electron microscope(Hitachi H-600, Japan) at an accelerated voltage of 75 kv.

tubulin [3] = test: effect of cold temperature (4° C.) on microtubules assembled by GTP, taxol or TALP; conditions: chilled to 4° C.
Protocol: To investigate effect of cold temperature on tubulin polymerization, tubulin was added to 0.1M MES buffer(pH 6.8). Then GTP, taxol or TALP was added to the reaction mixture, and polymerization of microtubules were carried out at 37° C. for 15 minutes. Then, the reaction solution was chilled to a temperature of 4° C., and depolymerization of microtubules assembled was measured, with the addition of GTP, taxol or TALP(see: FIG. 6).

tubulin [4] = test: effect of Ca2+ on microtubules assembled by GTP, taxol or TALP; conditions: 4 mM CaCl2
Protocol: To investigate effect of Ca^2+ on tubulin polymerization, tubulin was added to 0.1M MES buffer(pH 6.8) free of EGTA, and GTP, taxol or TALP was added, and polymerization of microtubules were carried out at 37° C. for 15 minutes. Then, 4 mM CaCl2 was added to the reaction mixture, and depolymerization of microtubules assembled was measured, with the addition of GTP, taxol or TALP(see: FIG. 5).

tubulin [5] = test: tubulin polymerization monitored by turbidity (absorbance at 350 nm); conditions: 20 μM taxol; control 2 mM GTP
Protocol: All of the purification steps were carried out under 4° C., and TALP activity was determined by the conventional tubulin polymerization which was monitored by turbidity(see: Gaskin, F. et al., 1974, J. Mol. Biol., 89:737-758): Tubulin prepared according to the method of Hamel et al. or Asnes et al.(see: Hamel E. et al., 1981, Arch. Biochem. Biophys., 209:29-40; Asnes, C. F. and Wilson, L., 1979, Anal. Biochem., 98:64-73) was added to 0.1M MES(2-[N-morpholino]ethane sulfonic acid) buffer(0.1M MES containing 1 mM EGTA and 1 mM MgCl2, pH 6.8) to a final concentration of 1 mg/ml, and TALP containing solution was added to a final reaction volume of 250 μl. The reaction mixture was incubated at 37° C. for 30 minutes, and the change in absorbance at 350 nm was monitored with a Gilford Model 2600 spectrophotometer(Gilford, USA).
Effects of GTP, taxol and TALP on tubulin polymerization were examined in the same manner as described in Example 1.
When 0.5 μM of TALP was added to the reaction mixture, tubulin polymerization occurred twice or more as high as one without TALP(see: FIG. 4).

| Structure (SMILES) | tubulins polymerized ([1]; 2 mM GTP) | morphology of the polymers by electron microscopy (tubulin [2]) | microtubules depolymerized at 4° C. (tubulin [3]; assembled by 2 mM GTP) | microtubules depolymerized by Ca2+ (tubulin [4]; assembled by 2 mM GTP) | tubulins polymerized ([1]; 10 μM taxol) | microtubules depolymerized at 4° C. (tubulin [3]; assembled by 10 μM taxol) [%] | tubulin polymerization, times as high as the control (tubulin [5]) [times] | microtubules depolymerized by Ca2+ (tubulin [4]; assembled by 10 μM taxol) [%] |
| --- | --- | --- | --- | --- | --- | --- | --- | --- |
| Nc1nc2c(ncn2[C@@H]2O[C@H](COP(=O)(O)OP(=O)(O)OP(=O)(O)O)[C@@H](O)[C@H]2O)c(=O)[nH]1 [GTP] | most of tubulins were not polymerized | typical microtubules were assembled | most | most | – | – | – | – |
| CC(=O)O[C@H]1C(=O)[C@@]2(C)[C@H]([C@H](OC(=O)c3ccccc3)[C@]3(O)C[C@H](OC(=O)[C@H](O)[C@@H](NC(=O)c4ccccc4)c4ccccc4)C(C)=C1C3(C)C)[C@]1(OC(C)=O)CO[C@@H]1C[C@@H]2O [taxol] | – | typical microtubules were assembled | – | – | about 20% | 25 | 2.5 | 30 |
